# Assay results reported in EP2386631A1, “Purified lipase, methods of modification and applications” (Universiti Putra Malaysia, priority 2010, dated 2011).
# Values joined by “and” are separate entries in the source; they are usually repeats but may differ in a detail not shown here. Identical values can stand only once. Square brackets hold non-standard residues; d marks the D form. Peptide text beside a SMILES is read from it. * marks the point of attachment. Sta = CC(C)C[C@H](N)[C@@H](O)CC(=O)O; Isovaleryl = CC(C)CC(=O)*
# Assays:
# 205y lipase (-SP/TM) [1] = assay: Effect of organic solvents on lipase activity; type: biochemical, Bacillus sphaericus 205y; conditions: enzyme:solvent 3:1 v/v, 37°C, 30 min; relative to activity without organic solvent
# Description: The activity of 205 lipase (-SP/TM) towards the presence of organic solvents was tested by preincubating a mixture of purified enzyme with organic solvents (3:1, v/v) for 30 min at agitation rate of 200 rpm. Residual activity was measured at optimum temperature and expressed as percentage of activity without organic solvent. […] Mixture of enzyme and organic solvent (3:1 v/v) was incubated at 37°C for 30 min and the residual activity was measured using spectrophotometric method.
# [2] = cited from earlier work
# [3] = tested on: wild type organic solvent stable lipase secreted by Bacillus sphaericus 205y; conditions: presence of the solvent; cited from earlier work
# 205y lipase (-SP/TM) [4] = assay: Effect of metal ions on lipase activity; type: biochemical, Bacillus sphaericus 205y; conditions: 1 mM metal chloride, 50 mM potassium phosphate buffer pH 8.0, 37°C, 30 min
# Description: The effect of metal ions on lipase activity was investigated by treating 205y lipase (-SP/TM) with 1 mM and 10 mM of various metal chlorides ( Na^+, K^+, Mg^2+, Ca^2+, Fe^2+, Mn^2+, Zn^2+ and Cu^2+) in 50 mM potassium phosphate buffer pH 8.0 at 37°C for 30 min. The mixture was subjected to lipase assay after treatment and expressed as a percentage of activity without the metal chloride.
# 205y lipase (-SP/TM) [5] = assay: Effect of surfactants on lipase activity; type: biochemical, Bacillus sphaericus 205y; conditions: 0.1% surfactant (text: 1 mM), 37°C, 30 min prior to lipase assay, mean ± SD, n=3
# Description: The activity of 205y lipase (-SP/TM) towards surfactants was determined by preincubating the enzyme with various surfactants at a concentration of 1 mM at 37°C for 30 min. The surfactants used were Tween 20, Tween 40, Tween 60, Tween 80, Triton X-100, sodium dodecyl sulphate (SDS) and sodium lauryl sulphate (SLS). Residual activity was measured colorimetrically and expressed as percentage of activity without surfactant. […]. Table 7. Effect of surfactants on 205y lipase (-SP/TM) activity
# 205y lipase (-SP/TM) [6] = assay: Effect of inhibitors on lipase activity; type: biochemical, Bacillus sphaericus 205y; conditions: for Relative activity (100%): 37°C, 30 min prior to lipase assay, mean ± SD, n=3
# Description: The effect of inhibitors were tested on 205y lipase (-SP/TM) activity by preincubating the enzyme with dithiothreitol (DTT), β-mercaptoethanol, phenylmethylsulfonyl fluoride (PMSF), ethylenediaminetetraacetic acid ([…]) except for pepstatin A (1 mM). The residual activity was measured at optimum temperature and expressed as percentage of activity without inhibitor.
molecule,measurement,setting,value
CCCCCCCCCCCC [n-dodecane],lost in activity,205y lipase (-SP/TM) [1],more than 50%
same,log P,[2],6.6
CCCCCC [n-hexane],enzyme activity enhanced,[3],3.5 fold
[Zn+2] [Zn^2+],activity retained,205y lipase (-SP/TM) [4],> 50%
[Fe+2] [Fe^2+],activity retained,205y lipase (-SP/TM) [4],> 50%
Cc1ccc(C)cc1 [p-xylene],lost in activity,205y lipase (-SP/TM) [1],more than 50%
same,enzyme activity enhanced,[3],2.9 fold
same,log P,[2],3.1
"CCCCCCCCCCCCOS(=O)(=O)[O-].[Na+] [SLS, sodium lauryl sulphate]",Relative activity (100%),205y lipase (-SP/TM) [5]; sulphate,52.5% and 52.5 ± 1.9%
"C[S+](C)[O-] [DMSO, dimethyl sulfoxide]",enhancement in activity,205y lipase (-SP/TM) [1],more than 30%
same,lipase activity lost,[3],approximately 80%
"CC(C)CC(=O)N[C@H](C(=O)N[C@H](C(=O)N[C@@H](CC(C)C)[C@@H](O)CC(=O)N[C@@H](C)C(=O)N[C@@H](CC(C)C)[C@@H](O)CC(=O)O)C(C)C)C(C)C [Pepstatin A, pepstatin A] (Isovaleryl-VV[Sta]A[Sta]-OH)",Relative activity (100%),205y lipase (-SP/TM) [6]; 1 mM inhibitor,86.9 ± 1.5%
CCCCCCCCCCCCCCCC [hexadecane],enhancement in activity,205y lipase (-SP/TM) [1],more than 30%
same,log P,[2],8.8
"O=S(=O)(F)Cc1ccccc1 [PMSF, phenylmethylsulfonyl fluoride]",Relative activity (100%),205y lipase (-SP/TM) [6]; 1 mM inhibitor,74.0 ± 3.3%
same,Relative activity (100%),205y lipase (-SP/TM) [6]; 10 mM inhibitor,70.3 ± 2.8%
CCO [ethanol],enhancement in activity,205y lipase (-SP/TM) [1],more than 30%
CCCCCCCCCC [n-decane],enhancement in activity,205y lipase (-SP/TM) [1],more than 30%
same,log P,[2],5.6
Tween 40,Relative activity (100%),205y lipase (-SP/TM) [5],27.9 ± 1.7%
[K+] [K^+],effect on lipase activity,205y lipase (-SP/TM) [4],promoted
Tween 80,Relative activity (100%),205y lipase (-SP/TM) [5],29.4 ± 2.4%
CC#N [acetonitrile],enhancement in activity,205y lipase (-SP/TM) [1],more than 30%
same,effect on lipase activity,[3],complete deactivation
same,log P,[2],-0.15
CCCCCCCCCCO [1-decanol],lost in activity,205y lipase (-SP/TM) [1],more than 50%
[Mn+2] [Mn^2+],activity retained,205y lipase (-SP/TM) [4],> 50%
Tween 60,Relative activity (100%),205y lipase (-SP/TM) [5],34.0 ± 3.5%
Cc1ccccc1 [toluene],lost in activity,205y lipase (-SP/TM) [1],more than 50%
n-butanol,lost in activity,205y lipase (-SP/TM) [1],more than 50%
[Na+] [Na^+],activity retained,205y lipase (-SP/TM) [4],> 50%
CO [methanol],enhancement in activity,205y lipase (-SP/TM) [1],more than 30%
same,log P,[2],-0.76
"CCCCCCCCCCCCOS(=O)(=O)[O-].[Na+] [SDS, sodium dodecyl sulphate]",Relative activity (100%),205y lipase (-SP/TM) [5]; sulphate,28.9 ± 2.8%
"O=C(O)CN(CCN(CC(=O)O)CC(=O)O)CC(=O)O [EDTA, ethylenediaminetetraacetic acid]",Relative activity (100%),205y lipase (-SP/TM) [6]; 1 mM inhibitor,78.2% and 78.2 ± 1.8%
same,Relative activity (100%),205y lipase (-SP/TM) [6]; 10 mM inhibitor,40.1 ± 4.2%
Triton X-100,Relative activity (100%),205y lipase (-SP/TM) [5],47.3 ± 4.4%
[Mg+2] [Mg^2+],effect on lipase activity,205y lipase (-SP/TM) [4],promoted
OCCS [β-mercaptoethanol],inhibition,205y lipase (-SP/TM) [6]; 1 mM inhibitor,2.8%
same,Relative activity (100%),205y lipase (-SP/TM) [6]; 1 mM inhibitor,97.2 ± 2.7%
same,Relative activity (100%),205y lipase (-SP/TM) [6]; 10 mM inhibitor,76.3 ± 1.2%
Tween 20,Relative activity (100%),205y lipase (-SP/TM) [5],31.3 ± 1.1%
[Ca+2] [Ca^2+],effect on lipase activity,205y lipase (-SP/TM) [4],promoted
"O[C@H](CS)[C@H](O)CS (racemic) [DTT, dithiothreitol]",inhibition,205y lipase (-SP/TM) [6]; 1 mM inhibitor,16.6%
same,Relative activity (100%),205y lipase (-SP/TM) [6]; 1 mM inhibitor,83.4 ± 2.0%
same,Relative activity (100%),205y lipase (-SP/TM) [6]; 10 mM inhibitor,45.5 ± 2.5%
[Cu+2] [Cu^2+],activity retained,205y lipase (-SP/TM) [4],> 50%
